# Test results published in publication PMC9282638, “A Suite of Activity-Based Probes To Dissect the KLK Activome in Drug-Resistant Prostate Cancer” (Journal of the American Chemical Society, 2021).
# Target: T1, KLK3 (Homo sapiens, UniProt P07288)
# T1 construct: endogenous in cells; host or cells: LNCaP cells treated with 10 nM DHT; conditioned medium
# Test: Probe labeling of KLK3 in LNCaP conditioned media (in-gel fluorescence / streptavidin blot)
# Format: biochemical
# Conditions: LNCaP CM, 1 h treatment
# Source text: An optimized tetrapeptide designed to occupy the KLK S1–S4 subsites was envisaged for the ABP specificity element, grafted onto a peptidyl-diphenyl phosphonate (DPP) warhead which reacts specifically and exclusively with the Ser195 residue in the KLK3 active site.[21] […] We therefore replaced the boronic acid in 2 with the DPP moiety in 1 and capped the N-terminus with a tetramethyl rhodamine (TAMRA) fluorophore to afford 3, which served as a prototype ABP for KLK3. A mixed solid-phase and solution-phase approach was used for the synthesis of peptidyl-DPP compounds, as described previously (Figures S1 and S2).[24] […]
# Despite exquisite selectivity, maximal KLK3 labeling was achieved only after treatment with 20 μM 3 for 1 h. We therefore optimized probe potency by systematically modifying each amino acid side chain in the P1–P4 positions of a morpholine-capped peptidyl-DPP inhibitor scaffold and determined the potency of each analogue using competitive-ABPP against 3.[25],[26] […] Second generation biotinylated 20 and fluorescent 21 ABPs (Figures 2G and S7) based on this scaffold retained exquisite selectivity for KLK3 in LNCaP CM, but in contrast to first-generation ABP 3 achieved maximum labeling at only 1 μM and readily detectable labeling down to 130 nM (Figures 2H and S7). […]
# T1 sequence (P07288 25-261): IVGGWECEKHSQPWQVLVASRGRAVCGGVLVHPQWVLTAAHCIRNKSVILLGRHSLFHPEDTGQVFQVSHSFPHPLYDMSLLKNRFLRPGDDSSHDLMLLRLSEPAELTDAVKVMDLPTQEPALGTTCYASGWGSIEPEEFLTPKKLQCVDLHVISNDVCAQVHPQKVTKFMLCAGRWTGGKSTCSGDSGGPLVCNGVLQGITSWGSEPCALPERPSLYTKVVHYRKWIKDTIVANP
compound,measurement,value
CCC[C@H](NC(=O)[C@H](CCC(N)=O)NC(=O)[C@H](CC(N)=O)NC(=O)CCCCCNC(=O)CCCC[C@@H]1SC[C@@H]2NC(=O)N[C@@H]21)C(=O)NC(c1ccc(C(N)=O)cc1)P(=O)(Oc1ccccc1)Oc1ccccc1 (some centres unmarked) [compound 20],concentration at which maximal KLK3 labeling was achieved,1 µM
same,lowest concentration with readily detectable KLK3 labeling,130 nM
